# “And” between values parts separate entries of the source, which are not always exact repeats. Identical values can stand only once.
# Experiments:
# [1] = set-up: method as in PMID 20692328; details: cited from earlier work
# [2] = tested on: UVB irradiated human melanocytes; set-up: method as in PMID 19274591; details: cited from earlier work
# [3] = DPPH radical scavenging assay of the compounds
# Protocol: (§1) To determine the antioxidant capacity of ferulic acid and its derivatives the DPPH method was used. The analyses were performed using the Hitachi UV-Vis Spectrophotometer U-5100 at the wavelength λ = 517 nm. Trolox (6-hydroxy-2,5,7,8-tetramethylchroman-2-carboxylic acid) was used as a reference substance. The antioxidant activity was expressed as %RSA and mmol Trolox dm^−3. […]. Blank samples without antioxidant were prepared in the same way. The tubes were wrapped in aluminum foil and were sealed with a stopper and then incubated for 10 min at room temperature. After this time, spectrophotometric measurements were carried out in triplicate. For determination of antioxidant activity of the acceptor fluid after 24 h of permeation and solutions obtained by extraction of the skin obtained after penetration study, 0.15 mL samples of each solutions were separately added to 2.85 mL of DPPH solution and spectrophotometric measurements were performed. The antioxidant activity was expressed as mmol Trolox·dm^−3.
# [4] = n-octanol/water partition coefficient by shake flask method; type: physicochemical; details: for log PO/W: n-octanol/water, shake flask, 25 °C
# Protocol: The n-octanol/water partition coefficient (log PO/W) was determined for ferulic acid and its derivatives by shake flask method. n-Octanol saturated with water and water saturated with n-octanol were prepared at 25 °C, 24 h prior to their use in the experiments. Then, a sample of 10 mg of compound was weighed with the accuracy of 0.01 mg in a 16 cm^3 screwed vial and dissolved in 5 cm^3 of n-octanol. Next, 5 cm^3 of water was added to the vial. The resulting two-phase mixture was kept in water bath shaker at 25 °C for 2 h and was strongly shaken to reach the partition equilibrium of the compound between the phases. Then the mixture was left unshaken for 30 min and 1.0 cm^3 of water phase was carefully taken out to centrifuge tube. The sample was next centrifuged for 10 min at 7500 rpm at 25 °C to ensure the most precise phase separation. The concentration of compound in water phase was then determined using HPLC method. The partition coefficient, log PO/W was calculated according to the formula: logPO/W=logC0V0−CWVW/CWVW where: C0—initial concentration of the compound in n-octanol, calculated based on the weighed mass of compound, mg·cm^−^3; V0—volume of n-octanol, cm^3; CW—concentration of the compound in water after partition equilibrium, mg·cm^−^3; VW—volume of water, cm^3.
# [5] = Thermogravimetric (TG) analysis, thermal stability; type: physicochemical; details: air atmosphere, 10 °C·min^−1; for Td onset, the onset of decomposition: TG; for Td max, temperature of the fastest mass loss of the sample: TG/DTG
# Protocol: Samples of 2–5 mg, loaded in aluminium crucibles, were heated from 30 °C to 600 °C at the heating rate of 10 °C·min^−1, in the air atmosphere (25 mL·min^−1) with nitrogen flow (10 mL·min^−1) as the purge gas.
# [6] = DPPH antioxidant activity of solution obtained after skin extraction; set-up: species or system pig; details: after 24 h penetration
# Protocol: as §1
# The accumulation of the FA and its derivatives in the skin after 24 h permeation process through the skin were determined using a modification of the methods described by Janus et al. and Taokaew et al.. After 24 h of permeation experiment, the skin samples were removed from the Franz diffusion cell, washed three times with 0.5% sodium lauryl sulfate solution and dried at room temperature. Next, after cutting out the diffusion area of each skin sample, the samples were immersed in 2 mL of absolute ethanol and continuously stirred at 300 rpm at room temperature for 24 h. The samples were then centrifuged, and clear solutions were collected and analyzed by HPLC method for the determination of FA and its derivatives. The accumulation of the active substance in the skin was calculated by dividing the amount of the drug remaining in the skin by a mass of skin sample and was expressed in mass active substance per mass of the skin (µg g^−1). For solution obtained after skin extraction, the antioxidant activity and total polyphenol content were also determined (as described in Section 2.5.1 and Section 2.5.2).
# [7] = Skin permeation in Franz diffusion cells; type: in vitro ADME, pig; details: 24 h, 10 mg as FA applied
# Protocol: In the experiment, abdominal porcine skin coming from the local slaughterhouse was used. Pig skin was chosen because of its similar permeability to human skin [34, 35]. The fresh abdominal porcine skin was washed several times in PBS buffer pH 7.4. The skin of 0.5 mm in thickness was dermatomed and divided into 2 cm × 2 cm pieces. The skin samples were wrapped in aluminum foil and stored at −20 °C until use, not longer than 3 months. According to Badran et al., this storage time at this temperature is safe to keep skin barrier properties. Immediately before the experiment, the skin samples were slowly thawed at room temperature for 30 min and then were hydrated by PBS pH 7.4 [37, 38, 39, 40]. Such prepared skin was mounted on donor chamber. Only the undamaged skin pieces with an even thickness were chosen for experiments. The integrity of the skin was checked by impedance measurement using an LCRmeter4080 (Conrad Electronic, Hirschau, Germany), operated in parallel mode at an alternating frequency of 120 Hz (error at kΩ values < 0.5%). The tips of measuring probes were immersed in the donor and acceptor chamber containing PBS (pH 7.4), as described previously. Only skin samples of impedance > 3 kΩ were applied as such impedance is similar to the electrical resistance of human skin [42].
# The concentration of FA and its derivatives in the acceptor fluid and in the fluid obtained by skin extraction after permeation experiment was assessed using liquid chromatography system (Knauer, Berlin, Germany) consisting of a model 2600 UV detector, Smartline model 1050 pump and Smartline model 3950 autosampler. HPLC was controlled by ClarityChrom 2009 software. The detector was operated at 280 nm. The separations were performed on 125 mm × 4 mm ID chromatographic column filled with Hyperisil ODS (C18), particle size 5 µm, in isocratic mode. The mobile phase consisted of acetonitrile, 1% acetic acid, and MeOH (47/47/6 v/v/v) and was pumped at flow rate of 1 mL min^−1. The column temperature was set at 25 °C, and the injection volume was 20 µL.
# (§2) The permeation experiments were performed using Franz diffusion cells (Phoenix DB-6, ABL&E-JASCO, Wien, Austria). The diffusion was 1 cm^2. The volume of the acceptor chamber was 8 mL. This chamber was filled with PBS solution (pH 7.4). During experiment, a constant temperature of 37.0 ± 0.5 °C was maintained in each diffusion unit. The acceptor chamber content was stirred with a magnetic stirring bar at the same speed for all cells. The prepared pig skin was mounted on each donor chamber. As previously mentioned, only undamaged skin pieces with an even thickness were chosen for experiments. Thereafter, the hydrogel or emulsion vehicle/preparation in 1 g portion was put on the skin in donor cells. For comparison, 1 mL ethanolic solution containing either FA or its derivatives was applied to another donor chamber. The amount of the FA and its derivatives applied on the skin expressed as the mass of ferulic acid was 0.01 g and was the same for each carrier. The penetration experiments were carried out for 24 h. The samples were collected after 1 h, 2 h, 3 h, 4 h, 5 h, 6 h, 8 h, and 24 h. Aliquots of the acceptor fluid (0.5 mL) were withdrawn and to each acceptor chamber the same volume of fresh PBS solution was added. The FA and its derivatives’ concentrations in the acceptor fluid were measured by HPLC method (Section 2.6.2). The cumulative mass (µg·cm^−2) and penetration rate (µg·cm^−2·h^−1) were calculated. The acceptor fluid collected after 24 h of permeation was also measured for antioxidant activity and total polyphenol content (as described in Section 2.5.1 and Section 2.5.2).
# [8] = DPPH antioxidant activity of acceptor fluid after 24 h permeation; set-up: species or system pig; details: after 24 h penetration
# Protocol: as §1, §2
# [9] = molar ratio antioxidant:DPPH 0.1, 10 min
# [10] = molar ratio antioxidant:DPPH 1.0, 10 min
# [11] = molar ratio antioxidant:DPPH 2.0, 10 min
# [12] = from solution in 70% (v/v) ethanol
SMILES,skin permeation compared with pure FA [1],"Antioxidant activity %RSA [3, 9]","Antioxidant activity, Trolox equivalents [3, 9]","Antioxidant activity %RSA [3, 10]","Antioxidant activity, Trolox equivalents [3, 10]","Antioxidant activity %RSA [3, 11]","Antioxidant activity, Trolox equivalents [3, 11]",log PO/W [4],"Td onset, the onset of decomposition [5]","Td max, temperature of the fastest mass loss of the sample [5]",DPPH antioxidant activity of the solution obtained after skin extraction ([6]; emulsion),DPPH antioxidant activity of the solution obtained after skin extraction ([6]; ethanol solution),DPPH antioxidant activity of the solution obtained after skin extraction ([6]; hydrogel),Cumulative Permeation Mass ([7]; from emulsion),Cumulative Permeation Mass ([7]; from hydrogel),"Cumulative Permeation Mass [7, 12]",DPPH antioxidant activity of the acceptor fluid ([8]; emulsion),DPPH antioxidant activity of the acceptor fluid ([8]; ethanol solution),DPPH antioxidant activity of the acceptor fluid ([8]; hydrogel),further results
"COc1cc(/C=C/CO)ccc1O [CA, coniferyl alcohol]",permeated the skin to a higher degree than pure FA,,,,,,,,,,,,,,,,,,,
"COc1cc(/C=C/C=O)ccc1O [CD, coniferyl aldehyde]",permeated the skin to a higher degree than pure FA,,,,,,,,,,,,,,,,,,,
"CCOC(=O)/C=C/c1ccc(O)c(OC)c1 [FAEE, ferulic acid ethyl ester]",permeated the skin to a higher degree than pure FA,,,,,,,,,,,,,,,,,,,production of ROS [2]: reduced the production of ROS
"CCCOC(=O)CN.COc1cc(/C=C/C(=O)O)ccc1O [GPr[FA], glycine propyl ester ferulate]",,17.6 ± 0.001 %RSA and 17.6 ± 0.001 a %RSA,0.099 ± 0.001 mmol Trolox dm^−3 and 0.099 ± 0.001 a mmol Trolox dm^−3,78.0 ± 0.001 b %RSA,0.681 ± 0.001 b mmol Trolox dm^−3,86.6 ± 0.001 %RSA and 86.6 ± 0.001 b %RSA,0.764 ± 0.001 mmol Trolox dm^−3 and 0.764 ± 0.001 b mmol Trolox dm^−3,0.582 ± 0.019,129.6 °C,145.3 °C,0.235 ± 0.037 a mmol Trolox dm^−3,0.257 ± 0.026 a mmol Trolox dm^−3,0.298 ± 0.009 a mmol Trolox dm^−3,101.70 ± 26.47 a µg FA·cm^−2,268.16 ± 12.71 a µg FA·cm^−2,378.26 ± 2.29 a µg FA·cm^−2,0.059 ± 0.010 a mmol Trolox dm^−3,0.097 ± 0.021 b mmol Trolox dm^−3,0.069 ± 0.002 a mmol Trolox dm^−3,Share of compound partitioned to n-octanol ([4]; from log PO/W): 79%
"CCCOC(=O)[C@@H](N)CC(C)C.COc1cc(/C=C/C(=O)O)ccc1O [LPr[FA], L-leucine propyl ester ferulate]",,17.6 ± 0.001 %RSA and 17.6 ± 0.001 a %RSA,0.098 ± 0.001 mmol Trolox dm^−3 and 0.098 ± 0.001 a mmol Trolox dm^−3,79.5 ± 0.001 b %RSA,0.696 ± 0.001 b mmol Trolox dm^−3,87.8 ± 0.001 %RSA and 87.8 ± 0.001 b %RSA,0.776 ± 0.001 mmol Trolox dm^−3 and 0.776 ± 0.001 b mmol Trolox dm^−3,0.454 ± 0.009,126.0 °C,156.0 °C,0.257 ± 0.014 ab mmol Trolox dm^−3,0.255 ± 0.038 a mmol Trolox dm^−3,0.298 ± 0.009 mmol Trolox dm^−3 and 0.320 ± 0.030 ab mmol Trolox dm^−3,119.29 ± 19.72 a µg FA·cm^−2,267.48 ± 24.57 a µg FA·cm^−2,415.12 ± 8.71 µg FA·cm^−2 and 415.12 ± 8.71 b µg FA·cm^−2,0.053 ± 0.005 mmol Trolox dm^−3 and 0.053 ± 0.005 a mmol Trolox dm^−3,0.098 ± 0.011 mmol Trolox dm^−3 and 0.098 ± 0.011 a mmol Trolox dm^−3,0.063 ± 0.009 mmol Trolox dm^−3 and 0.063 ± 0.009 a mmol Trolox dm^−3,"DPPH antioxidant activity of the solution obtained after skin extraction ([6]; ethanol solution, listed as Leu[FA]): 0.255 ± 0.038 mmol Trolox dm^−3"

# Source: PMC9861623, “New Ferulic Acid and Amino Acid Derivatives with Increased Cosmeceutical and Pharmaceutical Potential” (Pharmaceutics, 2022)
